Data as given in ChEMBL document CHEMBL1201862, “PubChem BioAssay data set” (2004).
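Growth conditions: 96-well plates. Treatment: test compound, 48 hours, 5 concentrations. Analysis: linear interpolation between bracketing concentrations; unreached endpoints set to highest concentration. GI50 = concentration required for 50% inhibition of growth.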 Activity calls are given as the source filed them. Rule as the data show it: active = GI50 up to about 1.1 µM and inactive = higher.

How the values were obtained:
Test in all cases: NCI-60 cell line screen, 48 h
[1] = test system: A498
[2] = test system: SN12C
[3] = test system: SK-OV-3
[4] = test system: TK-10
[5] = test system: OVCAR-8
[6] = test system: UACC-62
[7] = test system: RXF 393
[8] = test system: CCRF-CEM
[9] = test system: RPMI-8226
[10] = test system: UO-31
[11] = test system: ACHN
[12] = test system: HT-29
[13] = test system: MCF7
[14] = test system: SF-295
[15] = test system: Hs-578T
[16] = test system: NCI-H522
[17] = test system: HCT-116
[18] = test system: SNB-19
[19] = test system: NCI-H23
[20] = test system: MDA-MB-435

SMILES | GI50 [1] | GI50 [2] | GI50 [3] | GI50 [4] | GI50 [5] | GI50 [6] | GI50 [7] | GI50 [8] | GI50 [9] | GI50 [10] | GI50 [11] | GI50 [12] | GI50 [13] | GI50 [14] | GI50 [15] | GI50 [16] | GI50 [17] | GI50 [18] | GI50 [19] | GI50 [20]
C/C(=N/NC(=S)N1CC2CCC(CC2)C1)c1cnccn1 | 1.73 µM (inactive) | < 0.0178 µM (active) | < 0.01 µM (active) | 0.67 µM (active) | < 0.01 µM (active) | < 0.023 µM (active) | 0.541 µM (active) | < 0.01 µM (active) | < 0.01 µM (active) | < 0.0168 µM (active) | < 0.012 µM (active) | < 0.01 µM (active) | < 0.01 µM (active) | 0.0551 µM (active) | 2.42 µM (inactive) | 0.117 µM (active) | < 0.01 µM (active) | 0.406 µM (active) | < 0.01 µM (active) | 0.243 µM (active)
COc1cccc(CC(C)NCC(O)c2ccc(O)c(O)c2)c1 (centres undefined) | > 100 µM (inactive) | 25 µM (inactive) | 16.6 µM (inactive) | 25.6 µM (inactive) | 18.7 µM (inactive) | 37.5 µM (inactive) | > 100 µM (inactive) | 21 µM (inactive) | 39.2 µM (inactive) | 39.3 µM (inactive) | 36.6 µM (inactive) | > 100 µM (inactive) | 41.8 µM (inactive) | > 100 µM (inactive) | 57.1 µM (inactive) | 34.8 µM (inactive) | 28.8 µM (inactive) | 32.3 µM (inactive) | 33.7 µM (inactive) | 44.4 µM (inactive)
O=c1[nH]nc(-c2ccccc2)n1/N=C/c1ccccc1O | 34.1 µM (inactive) | > 100 µM (inactive) | 22.9 µM (inactive) | > 100 µM (inactive) | 47.6 µM (inactive) | 81.1 µM (inactive) | 29.7 µM (inactive) | – | > 100 µM (inactive) | > 100 µM (inactive) | 63.2 µM (inactive) | > 100 µM (inactive) | > 100 µM (inactive) | 71 µM (inactive) | 29.3 µM (inactive) | 42.7 µM (inactive) | 33.4 µM (inactive) | 35.5 µM (inactive) | > 100 µM (inactive) | > 100 µM (inactive)
c1ccc2c(Cc3[nH]c4ccccc4c3Cc3c[nH]c4ccccc34)c[nH]c2c1 | 2.39 µM (inactive) | 1.77 µM (inactive) | 3.56 µM (inactive) | 2.85 µM (inactive) | 4.09 µM (inactive) | 11 µM (inactive) | 1.94 µM (inactive) | 2.16 µM (inactive) | 2.74 µM (inactive) | 3.35 µM (inactive) | 14.5 µM (inactive) | 2.52 µM (inactive) | 11.2 µM (inactive) | 4.3 µM (inactive) | 1.47 µM (inactive) | 1.8 µM (inactive) | 1.69 µM (inactive) | 4.93 µM (inactive) | 2.1 µM (inactive) | 2.08 µM (inactive)
